Laboratory results published in PubChem BioAssay AID248 (DTP/NCI, 2004).
Inconclusive results and toxic doses are left out.

System: L1210 leukemia ip in BDF1 mice, survival T/C
Experiment: NCI In Vivo Anticancer Drug Screen. Data for tumor model L1210 Leukemia (intraperitoneal) in B6D2F1 (BDF1) mice
Settings: endpoint: mean survival time, higher = longer survival
In short: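 Value reflects the ratio of survival in compound-treated mice to survival in vehicle-treated controls, with both groups carrying the same transplanted tumor.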

[1] = dose: 100.0 mg/kg/injection, schedule: Q01DX001 (ip), vehicle: saline
[2] = dose: 200.0 mg/kg/injection, schedule: Q01DX001 (ip), vehicle: saline
[3] = dose: 400.0 mg/kg/injection, schedule: Q01DX001 (ip), vehicle: saline
[4] = dose: 100.0 mg/kg/injection, schedule: Q01DX009 (ip), vehicle: saline with Tween-80

SMILES: CC[C@@]1(O)C(=O)OCc2c1cc1n(c2=O)Cc2cc3c(OC)cccc3nc2-1
- T/C (dose: 0.25 mg/kg/injection, schedule: Q01DX009 (ip), vehicle: saline with Tween-80): 122 % of control
- T/C (dose: 0.5 mg/kg/injection, schedule: Q01DX009 (ip), vehicle: carboxymethylcellulose (CMC)): 120 % of control
- T/C (dose: 0.5 mg/kg/injection, schedule: Q01DX009 (ip), vehicle: saline with Tween-80): 122 % of control
- T/C (dose: 1.0 mg/kg/injection, schedule: Q01DX009 (ip), vehicle: carboxymethylcellulose (CMC)): 107 % of control
- T/C (dose: 1.0 mg/kg/injection, schedule: Q01DX009 (ip), vehicle: saline with Tween-80): 162 % of control
- T/C (dose: 4.0 mg/kg/injection, schedule: Q01DX009 (ip), vehicle: carboxymethylcellulose (CMC)): 88 % of control
- T/C (dose: 4.0 mg/kg/injection, schedule: Q04DX003 (ip), vehicle: saline with Tween-80): 173 % of control
- T/C (dose: 8.0 mg/kg/injection, schedule: Q04DX003 (ip), vehicle: saline with Tween-80): 215 % of control
- T/C (dose: 12.5 mg/kg/injection, schedule: Q04DX003 (ip), vehicle: saline with Tween-80): 123 % of control
- T/C (dose: 25.0 mg/kg/injection, schedule: Q04DX003 (ip), vehicle: saline with Tween-80): 96 % of control
- T/C (dose: 50.0 mg/kg/injection, schedule: Q04DX003 (ip), vehicle: saline with Tween-80): 93 % of control

SMILES: NCCC(=O)NO
- T/C [1]: 98 % of control
- T/C [2]: 88 % of control
- T/C [3]: 106 % of control

SMILES: CCN=C(c1ccc(NC(=O)c2ccc(C(=O)Nc3ccc(C(=NCC)N(CC)C(=O)OC)cc3)cc2)cc1)N(CC)C(=O)OC
- T/C (dose: 1.5 mg/kg/injection, schedule: Q01DX015 (ip), vehicle: methylcellulose (MC)): 112 % of control
- T/C (dose: 7.5 mg/kg/injection, schedule: Q01DX015 (ip), vehicle: methylcellulose (MC)): 167 % of control

SMILES: CC1=NN(c2ccccc2)C(=O)C1N=Nc1ccccc1S(=O)(=O)O (configuration not stated)
- T/C [1]: 96 % of control
- T/C [2]: 94 % of control
- T/C [3]: 102 % of control

SMILES: C=C/C(C)=C/[C@H](C)C(=O)C[C@H](O)CC1CC(=O)NC(=O)C1
- T/C (dose: 12.5 mg/kg/injection, schedule: Q01DX009 (ip), vehicle: saline with Tween-80): 109 % of control
- T/C (dose: 25.0 mg/kg/injection, schedule: Q01DX009 (ip), vehicle: Klucel (hydroxypropylcellulose) (HPC)): 113 % of control
- T/C (dose: 25.0 mg/kg/injection, schedule: Q01DX009 (ip), vehicle: saline with Tween-80): 120 % of control
- T/C (dose: 50.0 mg/kg/injection, schedule: Q01DX009 (ip), vehicle: Klucel (hydroxypropylcellulose) (HPC)): 122 % of control
- T/C (dose: 50.0 mg/kg/injection, schedule: Q01DX009 (ip), vehicle: saline with Tween-80): 119 % of control
- T/C (dose: 100.0 mg/kg/injection, schedule: Q01DX009 (ip), vehicle: Klucel (hydroxypropylcellulose) (HPC)): 90 % of control
- T/C [4]: 123 % of control

SMILES: CCCCCCOc1ccc(C2=C(c3ccccc3)C(=O)C(c3ccccc3)=C2c2ccccc2)cc1
- T/C (dose: 100.0 mg/kg/injection, schedule: Q01DX001 (ip), vehicle: carboxymethylcellulose (CMC)): 100 % of control
- T/C (dose: 200.0 mg/kg/injection, schedule: Q01DX001 (ip), vehicle: carboxymethylcellulose (CMC)): 97 % of control
- T/C (dose: 400.0 mg/kg/injection, schedule: Q01DX001 (ip), vehicle: carboxymethylcellulose (CMC)): 100 % of control

SMILES: O=C1CCC(=O)N1c1ccccc1Cl
- T/C (dose: 87.5 mg/kg/injection, schedule: Q01DX001 (ip), vehicle: Klucel (hydroxypropylcellulose) (HPC)): 102 % of control
- T/C (dose: 175.0 mg/kg/injection, schedule: Q01DX001 (ip), vehicle: Klucel (hydroxypropylcellulose) (HPC)): 106 % of control
- T/C (dose: 350.0 mg/kg/injection, schedule: Q01DX001 (ip), vehicle: Klucel (hydroxypropylcellulose) (HPC)): 98 % of control

SMILES: CCOC(=O)C(=CNc1ccccn1)C(=O)OCC
- T/C [4]: 100 % of control
- T/C (dose: 100.0 mg/kg/injection, schedule: Q04DX003 (ip), vehicle: saline with Tween-80): 93 % of control
- T/C (dose: 200.0 mg/kg/injection, schedule: Q01DX009 (ip), vehicle: saline with Tween-80): 104 % of control
- T/C (dose: 200.0 mg/kg/injection, schedule: Q04DX003 (ip), vehicle: saline with Tween-80): 93 % of control
- T/C (dose: 400.0 mg/kg/injection, schedule: Q01DX009 (ip), vehicle: saline with Tween-80): 97 % of control
- T/C (dose: 400.0 mg/kg/injection, schedule: Q04DX003 (ip), vehicle: saline with Tween-80): 97 % of control

SMILES: O=S(=O)(Cc1ccccc1)/C(=C\c1ccccc1)c1ccccc1
- T/C (dose: 50.0 mg/kg/injection, schedule: Q01DX001 (ip), vehicle: saline): 105 % of control
- T/C [1]: 105 % of control
- T/C [2]: 105 % of control
- T/C [3]: 103 % of control
